According to publication PMC12897534, “Design, synthesis, and antiproliferative activity of new 5-ethylsulfonyl-indazole-3-carbohydrazides as dual EGFR/VEGFR-2 kinases inhibitors” (Journal of Enzyme Inhibition and Medicinal Chemistry, 2025):

Key:
[1] = test system: MCF-7 (breast) cancer cell line; assay: Antiproliferative assay, MCF-7; format: cell-based, human; settings: Homo sapiens, MCF7; read-out: Antiproliferative activity IC50 ± SEM, MCF-7
Method: (§1) Table 1 presents the median inhibitory concentration (IC50) and GI50 (mean IC50) for the four cancer cell lines.
(§2) Refer to Appendix A for additional information.
(§3) To explore the antiproliferative potential of compounds propidium iodide fluorescence assay was performed using different cell lines such as Panc-1 (pancreas cancer cell line) [Panc-1-CTC (RRID:CVCL_VQ69)], MCF-7 (breast cancer cell line) [MCF-7 (RRID:CVCL_0031)], HT-29 (colon cancer cell line) [HT-29 (RRID:CVCL_0320)] and A-549 (epithelial cancer cell line)[A-549 (RRID:CVCL_0023)], respectively. All cell lines were obtained from ATCC (American Type Cell Culture).
(§4) To calculate the total nuclear DNA, a fluorescent dye (propidium iodide, PI) is used which can attach to the DNA, thus offering a quick and precise technique. PI cannot pass through the cell membrane and its signal intensity can be considered as directly proportional to quantity of cellular DNA. Cells whose cell membranes are damaged or have changed permeability are counted as dead ones. The assay was performed by seeding the cells of different cell lines at a density of 3000-7500 cells/well (in 200 μl medium) in culture plates followed by incubation for 24 h at 37 °C in humidified 5% CO2 /95% air atmospheric conditions. The medium was removed; the compounds were added to the plates at 10 μM concentrations (in 0.1% DMSO) in triplicates, followed by incubation for 48 h. DMSO (0.1%) was used as control. After incubation, medium was removed followed by the addition of PI (25 μl, 50 μg/mL in water/medium) to each well of the plates. At -80 °C, the plates were allowed to freeze for 24 h, followed by thawing at 25 °C. A fluorometer (Polar-Star BMG Tech) was used to record the readings at excitation and emission wavelengths of 530 and 620 nm for each well. The percentage cytotoxicity of compounds was calculated using the following formula: […]

[2] = test system: four cancer cell lines (A-549, MCF-7, Panc-1, HT-29); assay: Antiproliferative assay, mean over the four cancer cell lines (GI50); format: cell-based, human; settings: for IC50: Homo sapiens, mean IC50 of A-549, MCF-7, Panc-1, HT-29
Description: as §1, §2
All cell lines were obtained from ATCC (American Type Cell Culture). […]

[3] = test system: Panc-1 (pancreatic) cancer cell line; assay: Antiproliferative assay, Panc-1; format: cell-based, human; settings: Homo sapiens, PANC-1; read-out: Antiproliferative activity IC50 ± SEM, Panc-1
Method: as §1, §2, §3, §4

[4] = test system: A-549 (lung) cancer cell line; assay: Antiproliferative assay, A-549; format: cell-based, human; settings: Homo sapiens, A549; read-out: Antiproliferative activity IC50 ± SEM, A-549
Method: as §1, §2, §3, §4

[5] = Cell viability assay (MTT) on normal cell line; settings: human, MCF-10A normal mammary gland epithelial cells
Method: The viability of the investigated compounds was assessed using the normal human mammary gland epithelial cell line MCF-10A. After four days of incubation on MCF-10A cells with 50 µM of each examined compound, cell viability was assessed using the MTT test[46]^,[47].
The viability of 7a–o was determined using the normal human mammary gland epithelial (MCF-10A) cell line^46,[47].
MTT assay was performed to investigate the effect of the synthesized compounds on mammary epithelial cells (MCF-10A). The cells were propagated in medium consisting of Ham's F-12 medium/ Dulbecco's modified Eagle's medium (DMEM) (1:1) supplemented with 10% foetal calf serum (GIBCO, UK), 2 mM glutamine, insulin (10 μg/mL), hydrocortisone (500 ng/mL) and epidermal growth factor (20 ng/mL). Trypsin ethylenediamine tetra acetic acid (EDTA) was used to passage the cells after every 2-3 days. 96-well flat-bottomed cell culture plates were used to seed the cells at a density of 10^4 cells mL^-1. The medium was aspirated from all the wells of culture plates after 24 h followed by the addition of synthesized compounds (in 200 μL medium to yield a final concentration of 0.1% (v/v) dimethyl sulfoxide) into individual wells of the plates. Four wells were designated to a single compound. The plates were allowed to incubate at 37°C for 96 h. Afterwards, the medium was aspirated and 3-[4,5-dimethylthiazol-2-yl]-2,5-diphenyltetrazolium bromide (MTT) (0.4 mg/mL) in medium was added to each well and subsequently incubated for 3 h. The medium was aspirated and 150 μL dimethyl sulfoxide (DMSO) was added to each well. The plates were vortexed followed by the measurement of absorbance at 540 nm on a microplate reader.

[6] = test system: HT-29 (colon) cancer cell line; assay: Antiproliferative assay, HT-29; format: cell-based, human; settings: Homo sapiens, read-out: Antiproliferative activity IC50 ± SEM, HT-29
Method: as §1, §2, §3, §4

Row | SMILES | IC50 [1] | IC50 [2] | IC50 [3] | IC50 [4] | IC50 [6] | Fold less potent than 7j (GI50) ([2]; GI50 ratio to 7j) | Fold less potent than 7 g (GI50) ([2]; GI50 ratio to 7 g) | Fold less potent than 7i (GI50) ([2]; GI50 ratio to 7i) | Fold less potent than 7 l (GI50) ([2]; GI50 ratio to 7 l) | viability at 96 h, 50 µM [5]
1 | CCS(=O)(=O)c1ccc2[nH]nc(C(=O)N/N=C/C3CC3)c2c1 [Compound 7m, (E)-N′-(cyclopropylmethylene)-5-(ethylsulfonyl)-1H-indazole-3-carbohydrazide] | 52 ± 4 nM | 50 nM | 50 ± 4 nM | 49 ± 3 nM | 50 ± 4 nM | – | – | – | – | 94%
2 | CCS(=O)(=O)c1ccc2[nH]nc(C(=O)N/N=C/c3ccc(C#N)cc3)c2c1 [Compound 7a, (E)-N′-(4-Cyanobenzylidene)-5-(ethylsulfonyl)-1H-indazole-3-carbohydrazide] | 79 ± 6 nM | 78 nM | 77 ± 6 nM | 77 ± 6 nM | 78 ± 6 nM | – | 2.1 fold | 2.4 fold | 1.9 fold | 94%
3 | CCS(=O)(=O)c1ccc2[nH]nc(C(=O)N/N=C/c3ccc4c(cnn4C)c3)c2c1 [Compound 7c, (E)-5-(ethylsulfonyl)-N′-((1-methyl-1H-indazol-5-yl)methylene)-1H-indazole-3-carbohydrazide] | 59 ± 4 nM | 58 nM | 58 ± 4 nM | 56 ± 4 nM | 58 ± 4 nM | – | – | – | – | 91%
4 | C#Cc1cccc(Nc2ncnc3cc(OCCOC)c(OCCOC)cc23)c1 [Erlotinib, reference compound] | 40 ± 3 nM | – | 30 ± 3 nM | 30 ± 3 nM | 30 ± 3 nM | – | – | – | – | –
5 | CCS(=O)(=O)c1ccc2[nH]nc(C(=O)N/N=C/c3ccc4ncccc4c3)c2c1 [Compound 7d, (E)-5-(ethylsulfonyl)-N′-(quinolin-6-ylmethylene)-1H-indazole-3-carbohydrazide] | 55 ± 4 nM | 54 nM | 54 ± 4 nM | 53 ± 4 nM | 54 ± 4 nM | – | – | – | – | 92%

Continued by falling IC50 [1], values first:

Row | IC50 [1] | IC50 [2] | IC50 [3] | IC50 [4] | IC50 [6] | Fold less potent than 7j (GI50) ([2]; GI50 ratio to 7j) | Fold less potent than 7 g (GI50) ([2]; GI50 ratio to 7 g) | Fold less potent than 7i (GI50) ([2]; GI50 ratio to 7i) | Fold less potent than 7 l (GI50) ([2]; GI50 ratio to 7 l) | SMILES | viability at 96 h, 50 µM [5]
6 | 75 ± 6 nM | 73 nM | 73 ± 6 nM | 71 ± 6 nM | 72 ± 6 nM | – | – | – | – | CCS(=O)(=O)c1ccc2[nH]nc(C(=O)N/N=C/c3ccc4c(ccn4C)c3)c2c1 [Compound 7f, (E)-5-(ethylsulfonyl)-N′-((1-methyl-1H-indol-5-yl)methylene)-1H-indazole-3-carbohydrazide] | 92%
7 | 70 ± 6 nM | 68 nM | 68 ± 5 nM | 67 ± 5 nM | 68 ± 5 nM | – | – | – | – | CCS(=O)(=O)c1ccc2[nH]nc(C(=O)N/N=C/c3cncnc3)c2c1 [Compound 7h, (E)-5-(ethylsulfonyl)-N′-(pyrimidin-5-ylmethylene)-1H-indazole-3-carbohydrazide] | 93%
8 | 66 ± 5 nM | 64 nM | 64 ± 5 nM | 63 ± 5 nM | 64 ± 5 nM | – | – | – | – | CCS(=O)(=O)c1ccc2[nH]nc(C(=O)N/N=C/C3CCCC3)c2c1 [Compound 7n, (E)-N′-(cyclopentylmethylene)-5-(ethylsulfonyl)-1H-indazole-3-carbohydrazide] | 90%
9 | 61 ± 5 nM | 60 nM | 60 ± 5 nM | 58 ± 4 nM | 60 ± 5 nM | 2.3 fold | – | – | – | CCS(=O)(=O)c1ccc2[nH]nc(C(=O)N/N=C/c3nccs3)c2c1 [Compound 7e, (E)-5-(ethylsulfonyl)-N′-(thiazol-2-ylmethylene)-1H-indazole-3-carbohydrazide] | 94%
10 | 50 ± 4 nM | 48 nM | 48 ± 3 nM | 47 ± 3 nM | 48 ± 3 nM | – | – | – | – | CCS(=O)(=O)c1ccc2[nH]nc(C(=O)N/N=C/c3cccnc3)c2c1 [Compound 7b, (E)-5-(ethylsulfonyl)-N′-(pyridin-3-ylmethylene)-1H-indazole-3-carbohydrazide] | 92%
